{
  "source": "ChEMBL document CHEMBL1144099",
  "about": "“Three new antibacterial alkaloids from a marine sponge Stelletta species” (1999)",
  "data": [
    {"test_system": "Escherichia coli", "assay": "Antibacterial activity against Escherichia coli at 20 ug/6 mm disk", "assay_type": "functional", "units": {"inhibition zone (IZ)": "mm"}, "values": [
      {"smiles": "CC(C)=CCC/C(C)=C/CC/C(C)=C/CC(=O)NC[C@@H]1CC[N+]2(C)CCCC[C@H]12.[Cl-]", "note": "(stereo partly drawn) [STELLETTAMIDE C]", "inhibition zone (IZ)": 10.5},
      {"smiles": "CC(C)=CCC/C(C)=C/CC/C(C)=C/CC/C(C)=C/C(=O)NCCc1cn(CCCNC(=N)N)c[n+]1C.[Cl-]", "note": "[STELLETTAZOLE B]", "inhibition zone (IZ)": 6.1},
      {"smiles": "CC(C)=CCC/C(C)=C/CC/C(C)=C/CC/C(C)=C/C(=O)NCCc1cn(CCCN)c[n+]1C.[Cl-]", "note": "[STELLETTAZOLE C]", "inhibition zone (IZ)": 6.2}
    ]}
  ]
}
